The subject of this test is SYN120 tg mice. The experiment in a line: Immunohistochemistry of nigrostriatal alpha-synuclein deposition and striatal dopaminergic fibers after chronic treatment of SYN120 tg mice. It is filed as in vivo, mouse. The note with it: daily i.p. 5 mg/kg for 6 weeks. From the text: After the behavioral studies animals were sacrificed by transcardiac perfusion to collect their brains, which were used for immunohistochemical studies aimed at evaluating the efficacy of compound I-threo to reduce pathological alpha-synuclein deposition and neuroprotection in the nigrostriatal system.
First, we quantified aggregated alpha-synuclein pathological deposition by using an antibody specifically recognizing aggregated alpha-synuclein in the subtantia nigra and striatum of mice.
Then alpha-synuclein aggregation was evaluated also by using Thioflavin-S a dye recognizing fibrillary aggregates. […] Please note that dopaminergic neurons or fibers in the images were labelled in light blue.
Finally, we evaluated the neuroprotective effect of the chronic treatment with compound I-threo by quantifying the recovery of striatal dopaminergic fibers in the SYN120 tg mice treated with the compound when compared to the vehicle-treated animals.

The structures appear in SMILES notation.

For `COC(=O)[C@@H](c1ccc(C)cc1)C1CCCCN1.Cl` (stereo partly drawn) [I-threo, threo methyl 2-(piperidin-2-yl)-2-(p-tolyl)acetate hydrochloride], the “Thioflavin-S signal in substantia nigra and striatum” value is “marked reduction of thioflavin-S signal”. Besides, where the note is “vs vehicle”, the “aggregated alpha-synuclein in substantia nigra and striatum” value is “statistically significant reduction of aggregated alpha-synuclein”; the “striatal TH-positive dopaminergic fibers” value is given as “significant recovery of striatal TH-positive dopaminergic fibers”.
